We go through 18 compounds from patent US10173982B2, “Picolinamides as fungicides” (Dow AgroSciences LLC, priority 2016, dated 2019).

Holding throughout (type): in vivo
The test system of assay [1] is Zymoseptoria tritici. As to the kind of experiment: Fungicidal activity: leaf blotch of wheat (SEPTTR), percent disease control on wheat seedlings. The conditions noted are these: Zymoseptoria tritici, LV (low volume) activity at 121.5 g/H. The protocol:
Technical grades of materials were dissolved in acetone, which were then mixed with nine volumes of water containing 110 ppm Triton X-100. The fungicide solutions were applied onto wheat seedlings using an automated booth sprayer to run-off. All sprayed plants were allowed to air dry prior to further handling. All fungicides were evaluated using the aforementioned method for their activity vs. all target diseases, unless stated otherwise. Wheat leaf blotch and brown rust activity were also evaluated using track spray applications, in which case the fungicides were formulated as EC formulations, containing 0.1% Trycol 5941 in the spray solutions. Wheat plants (variety Yuma) were grown from seed in a greenhouse in 50% mineral soil/50% soil-less Metro mix until the first leaf was fully emerged, with 7-10 seedlings per pot. These plants were inoculated with an aqueous spore suspension of Zymoseptoria tritici either prior to or after fungicide treatments. After inoculation the plants were kept in 100% relative humidity (one day in a dark dew chamber followed by two to three days in a lighted dew chamber at 20° C.) to permit spores to germinate and infect the leaf. The plants were then transferred to a greenhouse set at 20° C. for disease to develop. When disease symptoms were fully expressed on the 1st leaves of untreated plants, infection levels were assessed on a scale of 0 to 100 percent disease severity. Percent disease control was calculated using the ratio of disease severity on treated plants relative to untreated plants.

For assay [2], the system named is Puccinia triticina. As to the kind of experiment: Fungicidal activity: wheat brown rust (PUCCRT), percent disease control on wheat seedlings. The conditions noted are these: Puccinia triticina, LV (low volume) activity at 121.5 g/H. The protocol: Technical grades of materials were dissolved in acetone, which were then mixed with nine volumes of water containing 110 ppm Triton X-100. The fungicide solutions were applied onto wheat seedlings using an automated booth sprayer to run-off. All sprayed plants were allowed to air dry prior to further handling. All fungicides were evaluated using the aforementioned method for their activity vs. all target diseases, unless stated otherwise. Wheat leaf blotch and brown rust activity were also evaluated using track spray applications, in which case the fungicides were formulated as EC formulations, containing 0.1% Trycol 5941 in the spray solutions. Wheat plants (variety Yuma) were grown from seed in a greenhouse in 50% mineral soil/50% soil-less Metro mix until the first leaf was fully emerged, with 7-10 seedlings per pot. These plants were inoculated with an aqueous spore suspension of Puccinia triticina either prior to or after fungicide treatments. After inoculation the plants were kept in a dark dew room at 22° C. with 100% relative humidity overnight to permit spores to germinate and infect the leaf. The plants were then transferred to a greenhouse set at 24° C. for disease to develop. Fungicide formulation, application and disease assessment followed the procedures as described in the Example A. Results of the evaluations are shown below in Table 4.

The subject of assay [3] is Phakopsora pachyrhizi. In words: Fungicidal activity: Asian soybean rust (PHAKPA), disease control on soybean seedlings. Particulars: High volume at 25 ppm. Here is the method: Technical grades of materials were dissolved in acetone, which were then mixed with nine volumes of water containing 0.011% Tween 20. The fungicide solutions were applied onto soybean seedlings using an automated booth sprayer to run-off. All sprayed plants were allowed to air dry prior to further handling.
Soybean plants (variety Williams 82) were grown in soil-less Metro mix, with one plant per pot. Two weeks old seedlings were used for testing. Plants were inoculated either 3 days prior to or 1 day after fungicide treatments. Plants were incubated for 24 h in a dark dew room at 22° C. and 100% relative humidity then transferred to a growth room at 23° C. for disease to develop. Disease severity was assessed on the sprayed leaves.

Setting [4] is: 24 h, 1 Day Protectant, read-out: SEPTTR 1DP disease control rating.
The mark [5] stands for this setting: 72 h, 3 Day Curative, read-out: SEPTTR 3DC disease control rating.
Setting [6] is: 24 h, 1 Day Protectant, read-out: PUCCRT 1DP disease control rating.
[7] abbreviates: 72 h, 3 Day Curative, read-out: PUCCRT 3DC disease control rating.
Where [8] appears, read: 24 h, 1 Day Protectant, read-out: PHAKPA 1DP disease control rating.
Where [9] appears, read: 72 h, 3 Day Curative, read-out: PHAKPA 3DC disease control rating.

Like-named read-outs stand apart in the source and are kept apart here.

Turning to `COc1ccnc(C(=O)N[C@@H](C)C(=O)O[C@@H](C)[C@@H](c2ccccc2)[S+]([O-])c2ccc(F)cc2)c1OC(C)=O` (some centres unmarked) [Compound 62], the pest or weed control at 121.5 g/ha in assay [1] (setting [4]) is at most 80%; in assay [1] (setting [5]), at most 80%; in assay [2] (setting [6]), at most 0%; in assay [2] (setting [7]), at most 0%. The pest or weed control at 25 ppm in assay [3] (setting [8]) and in assay [3] (setting [9]) was at most 0% in each case.
Turning to `COc1ccnc(C(=O)N[C@@H](C)C(=O)O[C@@H](C)[C@@H](c2ccccc2)S(=O)(=O)c2ccc(F)cc2)c1OC(C)=O` [Compound 64], the pest or weed control at 121.5 g/ha in assay [1] (setting [4]) is at most 80%; in assay [1] (setting [5]), at most 80%; in assay [2] (setting [6]), at most 80%; in assay [2] (setting [7]) it was at most 0%. Also, the pest or weed control at 25 ppm in assay [3] (setting [8]) was at most 0%; in assay [3] (setting [9]), at most 80%.
In the case of `COc1ccnc(C(=O)N[C@@H](C)C(=O)O[C@@H](C)[C@H](Sc2cccc(Cl)c2)c2ccccc2)c1OC(C)=O` [Compound 65], the pest or weed control at 121.5 g/ha was over 80% in assay [1] (setting [4]), at most 0% in assay [1] (setting [5]), over 80% in assay [2] (setting [6]) and at most 80% in assay [2] (setting [7]). Also, the pest or weed control at 25 ppm in assay [3] (setting [8]) and in assay [3] (setting [9]) was at most 80% throughout.
Consider `COc1ccnc(C(=O)N[C@@H](C)C(=O)O[C@@H](C)[C@H](Sc2ccc(C)cc2)c2ccccc2)c1OC(C)=O` [Compound 66], for which the pest or weed control at 121.5 g/ha in assay [1] (setting [4]) is over 80%; in assay [1] (setting [5]), at most 80%; in assay [2] (setting [6]) it was at most 80%; in assay [2] (setting [7]), at most 80%. Besides, the pest or weed control at 25 ppm in assay [3] (setting [8]) and in assay [3] (setting [9]) was at most 80% each time.
Consider `COc1ccnc(C(=O)N[C@@H](C)C(=O)O[C@@H](C)[C@H](Sc2ccc(C)cc2C)c2ccccc2)c1OC(C)=O` [Compound 67], for which the pest or weed control at 121.5 g/ha in assay [1] (setting [4]) was over 80%; in assay [1] (setting [5]) it was over 80%; in assay [2] (setting [6]), over 80%; in assay [2] (setting [7]), at most 80%. The pest or weed control at 25 ppm in assay [3] (setting [8]) was at most 80%; in assay [3] (setting [9]) it was at most 0%.
As to `COc1ccnc(C(=O)N[C@@H](C)C(=O)O[C@@H](C)[C@H](SCc2ccccc2)c2ccccc2)c1OC(C)=O` [Compound 68], the pest or weed control at 121.5 g/ha in assay [1] (setting [4]) is over 80%; in assay [1] (setting [5]), at most 80%; in assay [2] (setting [6]) it was over 80%; in assay [2] (setting [7]), over 80%. Further, the pest or weed control at 25 ppm in assay [3] (setting [8]) is over 80%; in assay [3] (setting [9]), at most 80%.
On to `COc1ccnc(C(=O)N[C@@H](C)C(=O)O[C@@H](C)[C@H](SCC(C)C)c2ccccc2)c1OC(C)=O` [Compound 69], for which the pest or weed control at 121.5 g/ha is at most 80% in assay [1] (setting [4]), at most 0% in assay [1] (setting [5]), over 80% in assay [2] (setting [6]) and at most 80% in assay [2] (setting [7]). The pest or weed control at 25 ppm was over 80% in assay [3] (setting [8]) and at most 80% in assay [3] (setting [9]).
Consider `COc1ccnc(C(=O)N[C@@H](C)C(=O)O[C@@H](C)[C@H](SC(C)C)c2ccccc2)c1OC(C)=O` [Compound 70], for which the pest or weed control at 121.5 g/ha was at most 80% in assay [1] (setting [4]), over 80% in assay [1] (setting [5]), over 80% in assay [2] (setting [6]) and at most 80% in assay [2] (setting [7]). Besides, the pest or weed control at 25 ppm was over 80% in assay [3] (setting [8]) and at most 80% in assay [3] (setting [9]).
Regarding `COc1ccnc(C(=O)N[C@@H](C)C(=O)O[C@@H](C)[C@H](Sc2ccc(C(F)(F)F)cn2)c2ccccc2)c1OC(C)=O` [Compound 71], the pest or weed control at 121.5 g/ha was at most 80% in assay [1] (setting [4]), at most 80% in assay [1] (setting [5]), at most 0% in assay [2] (setting [6]) and at most 80% in assay [2] (setting [7]). Moreover, the pest or weed control at 25 ppm in assay [3] (setting [8]) and in assay [3] (setting [9]) was at most 80% throughout.
Regarding `COc1ccnc(C(=O)N[C@@H](C)C(=O)O[C@@H](C)[C@@H](c2ccccc2)S(=O)(=O)Cc2ccccc2)c1OC(C)=O` [Compound 72], the pest or weed control at 121.5 g/ha in assay [1] (setting [4]) was at most 80%; in assay [1] (setting [5]), at most 0%; in assay [2] (setting [6]), at most 0%; in assay [2] (setting [7]) it was at most 0%.
With `COc1ccnc(C(=O)N[C@@H](C)C(=O)O[C@@H](C)[C@@H](c2ccccc2)[S+]([O-])c2ccc(C)cc2C)c1OC(C)=O` (some centres unmarked) [Compound 73], the pest or weed control at 121.5 g/ha in assay [1] (setting [4]) is at most 80%; in assay [1] (setting [5]) it was at most 0%; in assay [2] (setting [6]) it was at most 0%; in assay [2] (setting [7]) it was at most 0%.
Consider `COc1ccnc(C(=O)N[C@@H](C)C(=O)O[C@@H](C)[C@@H](c2ccccc2)[S+]([O-])Cc2ccccc2)c1OC(C)=O` (some centres unmarked) [Compound 74], for which the pest or weed control at 121.5 g/ha in assay [1] (setting [4]), in assay [1] (setting [5]), in assay [2] (setting [6]) and in assay [2] (setting [7]) was at most 0% in each case.
In the case of `COc1ccnc(C(=O)N[C@@H](C)C(=O)O[C@@H](C)[C@H](Sc2ccc(F)cc2)c2ccc(F)cc2C)c1OC(C)=O` [Compound 75], the pest or weed control at 121.5 g/ha in assay [1] (setting [4]) is over 80%; in assay [1] (setting [5]), over 80%; in assay [2] (setting [6]) it was at most 80%; in assay [2] (setting [7]), at most 0%.
With `COc1ccnc(C(=O)N[C@@H](C)C(=O)O[C@@H](C)[C@H](Sc2ccc(F)cc2C)c2ccc(F)cc2C)c1OC(C)=O` [Compound 76], the pest or weed control at 121.5 g/ha in assay [1] (setting [4]) was over 80%; in assay [1] (setting [5]), over 80%; in assay [2] (setting [6]), at most 80%; in assay [2] (setting [7]), at most 0%. Besides, the pest or weed control at 25 ppm in assay [3] (setting [8]) and in assay [3] (setting [9]) was at most 80% each time.
Take `COc1ccnc(C(=O)N[C@@H](C)C(=O)O[C@@H](C)[C@H](Sc2ccccc2)c2ccc(C)cc2)c1OC(C)=O` [Compound 77]: the pest or weed control at 121.5 g/ha in assay [1] (setting [4]) was over 80%; in assay [1] (setting [5]) it was at most 80%; in assay [2] (setting [6]), over 80%; in assay [2] (setting [7]) it was at most 80%. In addition, the pest or weed control at 25 ppm in assay [3] (setting [8]) and in assay [3] (setting [9]) was at most 80% each time.
In the case of `COc1ccnc(C(=O)N[C@@H](C)C(=O)O[C@@H](C)[C@H](Sc2ccccc2)c2ccc(F)cc2C)c1OC(C)=O` [Compound 78], the pest or weed control at 121.5 g/ha in assay [1] (setting [4]) is over 80%; in assay [1] (setting [5]), over 80%; in assay [2] (setting [6]) it was at most 80%; in assay [2] (setting [7]) it was at most 0%. In addition, the pest or weed control at 25 ppm in assay [3] (setting [8]) is at most 80%; in assay [3] (setting [9]), at most 0%.
With `COc1ccnc(C(=O)N[C@@H](C)C(=O)O[C@@H](C)[C@H](Sc2ccccc2)c2ccccc2)c1OCOC(=O)C(C)C` [Compound 79], the pest or weed control at 121.5 g/ha in assay [1] (setting [4]) is over 80%; in assay [1] (setting [5]) it was over 80%; in assay [2] (setting [6]), over 80%; in assay [2] (setting [7]) it was at most 80%. Moreover, the pest or weed control at 25 ppm in assay [3] (setting [8]) and in assay [3] (setting [9]) was at most 80% in each case.
As to `COc1ccnc(C(=S)N[C@@H](C)C(=O)O[C@@H](C)[C@H](Sc2ccc(F)cc2C)c2ccccc2)c1OC(C)=O` [Compound 83], the pest or weed control at 121.5 g/ha in assay [1] (setting [4]) is at most 80%; in assay [1] (setting [5]), at most 0%; in assay [2] (setting [6]), at most 80%; in assay [2] (setting [7]), at most 0%.
